Read-outs that look alike come from different tables or passages of the source.

Data set [1] deals with cytochrome oxidase P450 2C19 (Homo sapiens (Human), UniProt P33261). Description: Inhibition of cytochrome oxidase P450 2C19. Type of data set: in vitro ADME. Conditions: liver microsomes, CYP2C19.
The nature of data set [2]: Pharmacokinetic test in rats. The class given is in vivo. Particulars: SD rats; for AUC / Cmax / half-life: rat, plasma; for half-life: read-out: t½ (converted). The method, then:
In this example, the pharmacokinetic behavior of the compounds after intravenous injection (IV) and intragastric (PO) administration in SD rats was tested.
On the day of administration, rats were weighed for actual body weight and the administration volume was calculated. Each compound was tested in two groups with 3 rats in each group; one group was subjected to administration by single intravenous injection, and the other group was subjected to single intragastric administration. Whole blood samples were collected via the jugular vein at prescribed time points (0.25 h, 0.5 h, 1 h, 2 h, 4 h, 8 h, and 24 h after administration). After blood sample collection, the samples were immediately transferred to labeled commercial sample tubes containing K2-EDTA (0.85-1.15 mg), followed by centrifugation (3200×g, 4° C., 10 min) and plasma collection. The plasma was transferred to a pre-cooled centrifuge tube, frozen in dry ice, and then stored in an ultra-low temperature freezer at −60° C. or lower until the LC-MS/MS analysis.
Plasma concentrations were determined by the LC-MS/MS method. Plasma drug concentration data for the compounds were processed using a non-compartmental model in the WinNonlin Version 6.3 (Pharsight, Mountain View, CA) pharmacokinetic software. The relevant pharmacokinetic parameters were calculated by a linear-log trapezoidal method.

Data set [3] concerns the target cytochrome oxidase P450 2C9 (Homo sapiens (Human), UniProt P11712). Description: Inhibition of cytochrome oxidase P450 2C9. Particulars: liver microsomes, CYP2C9. The class given is in vitro ADME. How it is done: 100 mM K-Buffer: 9.5 mL of stock solution A was mixed with 40.5 mL of stock solution B, the total volume was adjusted to 500 mL with ultrapure water, and the buffer was titrated to pH 7.4 with KOH or H3PO4. The test compound powder was prepared into a stock solution at a certain concentration with DMSO or another organic solvent, which was then further diluted with a proper organic solvent. The liver microsomal in vitro incubation system for the CYP450 enzyme metabolism phenotype study was a biochemical reaction of prepared liver microsomes supplemented with a redox coenzyme and an enzyme-specific selective inhibitor under simulated physiological temperature and environment conditions. The concentration of the parent drug or a metabolite thereof in the incubation solution was determined by LC-MS/MS.

Data set [4] is described as follows: Stability test in rat liver microsomes. Particulars: rat liver microsomes 0.5 mg/mL, 1.0 μM substrate; for CLint scaled at 1 μM / half-life at 1 μM: Sprague-Dawley, pH 7.4; for CLint scaled at 1 μM: read-out: RLM 0.5 CLint(liver); for half-life at 1 μM: read-out: RLM 0.5 T½. Type of data set: in vitro ADME, Sprague-Dawley rats. How it is done: The phase I metabolic stability of the compounds in liver microsomes of CD-1 mice, Sprague-Dawley rats, beagle dogs, cynomolgus monkeys, and humans was assessed.
The animal and human liver microsomes used in the test system were purchased from Xenotech, Corning, or other qualified suppliers and stored in a freezer at a temperature below −60° C. prior to use.
The test samples and control compounds were separately incubated with animal and human liver microsomes at 37±1° C. for a period of incubation time up to 60 min. The samples were removed at the indicated time points, and the reaction was stopped with acetonitrile or another organic solvent containing an internal standard. After centrifugation, the resulting supernatants were assayed by the liquid chromatography-tandem mass spectrometry (LC-MS/MS) method.
73.21 g of dipotassium hydrogen phosphate trihydrate and 10.78 g of potassium dihydrogen phosphate were dissolved in 4000 mL of ultrapure water. The solution was adjusted to pH 7.40±0.10 with 10% phosphoric acid or 1 M potassium hydroxide to make a final concentration of 100 mM.
The test sample powder was prepared into a stock solution at a certain concentration with DMSO or another organic solvent, which was then further diluted with a suitable organic solvent.
Microsomes of each species were diluted into a 2× working solution with a 100 mM potassium phosphate buffer. The final concentration of the microsomes in the reaction system was 0.5 mg/mL.
An appropriate amount of nicotinamide adenine dinucleotide phosphate (NADP) and isocitric acid (ISO) powder was weighed out, dissolved in a magnesium chloride solution, and shaken and mixed well. An appropriate amount of isocitrate dehydrogenase (IDH) was added, and the mixture was mixed well by gently turning upside down. The final concentrations in the reaction system were: 1 mM NADP, 1 mM magnesium chloride, 6 mM ISO, and 1 unit/mL IDH.
The stop solution was prepared with acetonitrile or another organic solvent containing an internal standard (tolbutamide or another suitable compound). The prepared stop solution was stored in a freezer at 2-8° C.
Incubation was performed in a 96-well plate. Eight incubation plates were prepared and designated T0, T5, T15, T30, T45, T60, Blank60, and NCF60, respectively. The first 6 plates corresponded to reaction time points of […], respectively. No test sample or control compound was added to the Blank60 plate, and samples were taken after 60 min of incubation. In the NCF60 plate, incubation was performed for 60 min using the potassium phosphate buffer instead of the NADPH regeneration system solution. Three replicates were made for samples in all conditions.
The microsomes and the test sample or control compound were mixed, and then the incubation plates Blank60, T5, T15, T30, T45, and T60 except for TO and NCF60 were placed in a 37° C. water bath for pre-incubation for about 10 min. In the incubation plate T0, a stop solution was first added, followed by addition of the NADPH regeneration system working solution, and 98 μL of the potassium phosphate buffer was added to each sample well of the incubation plate NCF60 to initiate the reaction. After the pre-incubation of the incubation plates Blank60, T5, T15, T30, T45, and T60 was completed, 98 μL of the NADPH regeneration system working solution was added to each sample well to initiate the reaction. The reaction temperature was 37±1° C., the final volume of the reaction was 200 μL, and the reaction system included 0.5 mg/mL microsomes, 1.0 μM substrate, 1 mM NADP, 6 mM ISO, and 1 unit/ml IDH.
At 5 min, 15 min, […], 45 min, and 60 min, a cold stop solution containing an internal standard was added to the reaction plate to stop the reaction.
All the reaction plates after the reaction was stopped were shaken well and centrifuged at 3220×g at 4° C. for 20 min. After the supernatant was diluted at a certain ratio, LC-MS/MS analysis was performed. […]

cytochrome oxidase P450 2C19, sequence (P33261 whole entry): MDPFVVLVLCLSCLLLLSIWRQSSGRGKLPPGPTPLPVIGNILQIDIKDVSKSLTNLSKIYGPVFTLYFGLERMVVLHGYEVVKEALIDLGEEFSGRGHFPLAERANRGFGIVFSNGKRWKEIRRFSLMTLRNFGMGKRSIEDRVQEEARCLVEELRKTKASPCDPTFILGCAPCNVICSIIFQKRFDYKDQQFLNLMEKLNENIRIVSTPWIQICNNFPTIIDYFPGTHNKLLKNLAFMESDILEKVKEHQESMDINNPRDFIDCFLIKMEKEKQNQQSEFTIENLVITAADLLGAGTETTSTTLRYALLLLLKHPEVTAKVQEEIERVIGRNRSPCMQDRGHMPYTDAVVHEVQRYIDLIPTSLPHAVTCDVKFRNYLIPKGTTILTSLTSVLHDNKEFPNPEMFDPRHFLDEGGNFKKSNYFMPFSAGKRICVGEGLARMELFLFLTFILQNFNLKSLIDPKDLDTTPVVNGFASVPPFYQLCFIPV
cytochrome oxidase P450 2C9, sequence (P11712 whole entry): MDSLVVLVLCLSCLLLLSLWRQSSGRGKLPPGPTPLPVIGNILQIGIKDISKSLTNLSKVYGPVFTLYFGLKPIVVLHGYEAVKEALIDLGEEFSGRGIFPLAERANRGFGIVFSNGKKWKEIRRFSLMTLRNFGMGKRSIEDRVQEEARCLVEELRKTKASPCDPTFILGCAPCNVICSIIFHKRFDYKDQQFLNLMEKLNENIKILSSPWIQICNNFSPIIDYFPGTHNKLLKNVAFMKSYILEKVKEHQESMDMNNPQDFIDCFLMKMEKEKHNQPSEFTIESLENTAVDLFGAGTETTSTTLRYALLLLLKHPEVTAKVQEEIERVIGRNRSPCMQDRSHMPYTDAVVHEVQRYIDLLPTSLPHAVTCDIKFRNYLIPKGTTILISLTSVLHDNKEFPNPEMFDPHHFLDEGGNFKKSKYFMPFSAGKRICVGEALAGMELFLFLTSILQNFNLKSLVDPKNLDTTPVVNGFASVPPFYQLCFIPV

Turning to `O=C(Nc1cn2c(F)cnc2c(N2CCC(F)(F)CC2)n1)c1ccc(NS(=O)(=O)CCO)cc1N1CCC2(CC1)CC2` [Compound 34], in data set [1], the IC50 is above 10 µM. In data set [2] (PO @30mpk), the F stood at 25.7%. Also, in data set [2] (30 mg/kg, PO @30mpk), the AUC is 62.5 µM·h, the concentration peaked (Cmax) at 3430 nM and the half-life is 66.3 h. This molecule also came in with a half-maximal inhibitory concentration (IC50) in data set [3] of 4.46 µM. Further, in data set [4], the CLint scaled at 1 μM is 4.4 mL/min/kg and the half-life at 1 μM is 9.33 h.
In the case of `O=C(Nc1cn2ccnc2c(N2CCC(F)(F)CC2)n1)c1ccc(NS(=O)(=O)CCO)cc1N1CC2CCC(C2)C1` [Compound 17], the F in data set [2] (PO @5mpk) was found to be 39%. In addition, in data set [2] (5 mg/kg, PO @5mpk), the area under the curve (AUC) amounted to 3.2 µM·h, the peak level (Cmax) was 582 nM and the half-life was 4.9 h.
The molecule `O=C(Nc1cc2ccsc2c(N2CCC(F)(F)CC2)n1)c1ccc(NS(=O)(=O)CCO)cc1N1CCC2(CC1)CC2` [Compound 15] came in with a F in data set [2] (PO @5mpk) of 27%. Further, in data set [2] (5 mg/kg, PO @5mpk), the AUC is 9.67 µM·h, the concentration peaked (Cmax) at 540 nM and the half-life is 22.8 h. In data set [4], the CLint scaled at 1 μM came out at 17.2 mL/min/kg and the half-life at 1 μM was determined as 2.42 h.
In turn, `CS(=O)(=O)Nc1ccc(C(=O)Nc2cn3ccnc3c(N3CCC(F)(F)CC3)n2)c(N2CC3CCC(C3)C2)c1` [Compound 19] showed an IC50 in data set [1] above 10 µM. The F in data set [2] (PO @5mpk) worked out at 63%. In addition, in data set [2] (5 mg/kg, PO @5mpk), the AUC was 20.5 µM·h, the highest concentration (Cmax) came to 1240 nM and the half-life was 12.2 h. Besides, the 50% inhibitory concentration (IC50) in data set [3] was 9.38 µM. Moreover, in data set [4], the CLint scaled at 1 μM is 27.3 mL/min/kg and the half-life at 1 μM worked out at 1.52 h.
In data set [2] (PO @5mpk), `Cc1cc(NC(=O)c2ccc(NS(=O)(=O)CCO)cc2N2CC3CCC(C3)C2)nc(N2CCC(F)(F)CC2)n1` [Compound 3] gave an F of 57%. Also, in data set [2] (5 mg/kg, PO @5mpk), the AUC came out at 16.2 µM·h, the Cmax turned out to be 1330 nM and the half-life is 7 h.
With `O=C(Nc1cc2c(c(N3CCC(F)(F)CC3)n1)COC2)c1ccc(NS(=O)(=O)CCO)cc1N1CCC2(CC1)CC2` [Compound 14], in data set [2] (PO @5mpk), the F is on record as 25%. In data set [2] (5 mg/kg, PO @5mpk), the area under the curve (AUC) was determined as 1.92 µM·h, the highest level (Cmax) was 351 nM and the half-life is 6.4 h. For the same molecule, in data set [4], the CLint scaled at 1 μM turned out to be 34.3 mL/min/kg and the half-life at 1 μM came out at 1.21 h.
On to `O=C(Nc1cn2ncnc2c(N2CCC(F)(F)CC2)n1)c1ccc(NS(=O)(=O)CCO)cc1N1CCC2(CC1)CC2` [Compound 23], for which, in data set [4], the CLint scaled at 1 μM is below 17.3 mL/min/kg and the half-life at 1 μM is above 2.42 h.
On to `O=C(Nc1cc2ccccc2c(N2CCC(F)(F)CC2)n1)c1ccc(NS(=O)(=O)CCO)cc1N1CCC2(CC1)CC2` [Compound 6], for which the half-maximal inhibitory concentration (IC50) in data set [1] is above 10 µM. The molecule also registered a F in data set [2] (PO @5mpk) of 23%. In addition, in data set [2] (5 mg/kg, PO @5mpk), the exposure (AUC) was 8.92 µM·h, the concentration peaked (Cmax) at 509 nM and the half-life was 55.8 h. In data set [3], this molecule registered a 50% inhibitory concentration (IC50) of 5.28 µM. In addition, in data set [4], the CLint scaled at 1 μM is below 17.3 mL/min/kg and the half-life at 1 μM was above 2.42 h.
Consider `O=C(Nc1cc2cccnc2c(N2CCC(F)(F)CC2)n1)c1ccc(NS(=O)(=O)CCO)cc1N1CCC2(CC1)CC2` [Compound 21], for which the concentration for half-maximal inhibition (IC50) in data set [1] was above 10 µM. This molecule registered a F in data set [2] (PO @5mpk) of 24.7%. Besides, in data set [2] (5 mg/kg, PO @5mpk), the AUC turned out to be 33.9 µM·h, the Cmax is 2090 nM and the half-life was 10.6 h. This molecule also had a half-maximal inhibitory concentration (IC50) in data set [3] above 10 µM. Moreover, in data set [4], the CLint scaled at 1 μM was below 17.3 mL/min/kg and the half-life at 1 μM is above 2.42 h.
As to `CS(=O)(=O)Nc1ccc(C(=O)Nc2cc3cc[nH]c3c(N3CCC(F)(F)CC3)n2)c(N2CCC3(CC2)CC3)c1` [Compound 47], the IC50 in data set [1] is 0.98 µM; in data set [3], 0.18 µM. The CLint scaled at 1 μM in data set [4] amounted to 9 mL/min/kg. In data set [4], the half-life at 1 μM was found to be 4.59 h.
For `CS(=O)(=O)Nc1ccc(C(=O)Nc2cn3ccnc3c(N3CCC(F)(F)CC3)n2)c(N2CCC3(CC2)CC3)c1` [Compound 10], in data set [4], the CLint scaled at 1 μM turned out to be 19.3 mL/min/kg and the half-life at 1 μM is 2.16 h.
On to `O=C(Nc1cn2ccnc2c(N2CCC(F)(F)CC2)n1)c1ccc(NS(=O)(=O)CCO)cc1N1CCC2(CC1)CC2` [Compound 8], for which the IC50 in data set [1] was above 10 µM. In addition, the F in data set [2] (PO @5mpk) was found to be 16%. Moreover, in data set [2] (5 mg/kg, PO @5mpk), the AUC was 1.56 µM·h, the concentration peaked (Cmax) at 303 nM and the half-life is 5.9 h. The molecule further yielded a 50% inhibitory concentration (IC50) in data set [3] of 2.66 µM. In addition, in data set [4], the CLint scaled at 1 μM is below 17.3 mL/min/kg and the half-life at 1 μM was above 2.42 h.
Take `O=C(Nc1cn2cnnc2c(N2CCC(F)(F)CC2)n1)c1ccc(NS(=O)(=O)CCO)cc1N1CCC2(CC1)CC2` [Compound 24]: in data set [4], the “RLM 0.5 CLint(liver)” value is on record as 29.5 mL/min/kg and the “RLM 0.5 T½” value stood at 1.41 h.

These data come from patent US20250382298A1, “NITROGEN-CONTAINING COMPOUND AND USE THEREOF” (SUZHOU GENHOUSE BIO CO., LTD., priority 2022, published 2025).
